The subject of data set [1] is RAJI cells. As to the kind of experiment: Annexin V / propidium iodide cell death by flow cytometry, RAJI. In kind it is cell-based, human. To be noted: 1 IU/ml Erwinase. On the procedure:
RAJI cells stably expressing control shRNA (shCtrl), TRAF1 shRNA (shTRAF1) or PKN1 shRNA (shPKN1) were left untreated or treated with 1 IU/ml Erwinase for the indicated time points. For cells treated with Erwinase for longer than 24 hrs, cell culture media was replaced every 24 hrs and 1 IU/ml Erwinase was added to ensure the continued absence of glutamine. Cells were then stained with Annexin V-FITC (ebioscience) and Propidium Iodide (PI) and then analyzed by flow cytometry (BD LSR Fortessa). The upper right quadrant (Q2) indicates the fraction dead cells.
(A) Whole cell extracts from RAJI cells treated with control shRNA (shCTRL) or TRAF2 shRNA (shTRAF2) were immunoblotted for TRAF2 or as a loading control, GAPDH. (B) Annexin V staining of RAJI after Erwinase treatment (1 IU/ml; 24 hrs) in shCTRL, shTRAF1 or shTRAF2 cells.
(§1) It was next asked what the effect of reducing TRAF1 and its signalling partner TRAF2 in lymphoma had on cell proliferation and survival. […] To determine whether this effect was due to death of the lymphoma cells, Annexin V and propidium iodide (PI) staining of the lymphomas were analyzed at different times after transfer to Erwinase containing medium. Annexin V binds to phosphatidyl serine, which becomes exposed on the surface of cells as they undergo apoptosis. Then, cells become permeable to propidium iodide upon death. […] The slightly greater effect on cell death of direct TRAF1 knockdown compared to PKN1 knockdown is consistent with the smaller effect of PKN1 knockdown on TRAF1 levels compared to direct TRAF1 knockdown with shTRAF1.
A general note: Flow cytometry measures light scatter and fluorescence of single cells or particles in a stream.

The subject of data set [2] is RAJI cells. As to the kind of experiment: MTT cell viability / growth assay. In kind it is cell-based, human. As to conditions: RAJI. On the procedure: MTT reagent was then solubilized with DMSO and absorbance was measured by ELISA plate reader at 560 nm and referenced to absorbance at 620 nm. Data are plotted as fold change relative to untreated shCtrl RAJI cells.
as §1
FIG. 7 provides a rationale for a screen for a PKN1 inhibitor that synergizes with Erwinase: In particular, the assay is used to look for inhibitors that act at nanomolar concentration to reduce cell survival. […] Inhibitors that reduce the signal in the MTT assay by at least 3 fold relative to Erwinase alone will be identified as potential PKN1 inhibitors. This initial screen is amenable to a 96 well plate assay in which each drug candidate is tested on control RAJI cells with and without Erwinase as well as shPKN1 RAJI cells with Erwinase. Candidate drugs that lower the signal on control RAJI cells only in the presence but not in the absence of Erwinase, and have no effect on PKN1 knockdown cells treated with Erwinase, represent candidates for kinase inhibitors that act through PKN1 inhibition to reduce TRAF1 levels. The candidates can then be verified by determining the inhibitory effects on TRAF1 levels.

For the substance “shTRAF1: shRNA designed to knockdown expression of TRAF1, sequence CGTGTGTTTGAGAACATTG (Open Biosystems TRC library)”, the “sensitivity to Erwinase induced death (Annexin V/PI)” value in the data set with RAJI cells [1] was “Increases the Sensitivity of RAJI to Erwinase Induced Death”. Further, the “cell growth / proliferation with Erwinase (MTT)” value in the data set with RAJI cells [2] (1 IU/ml Erwinase) is reported as “sensitizes lymphoma to growth inhibition by Erwinase”. The “tumour growth rate (MTT)” value in the data set on RAJI cells [2] (complete culture medium, no Erwinase) was “no impact on the tumour growth rate”.

These data come from US20160361391A1, “REDUCTION OF TRAF1 LEVELS COMBINED WITH NUTRIENT STRESS FOR TREATING LYMPHOCYTE-RELATED CANCERS” (THE GOVERNING COUNCIL OF THE UNIVERSITY OF TORONTO, priority 2014, published 2016).
